In this test the test system is MDA-MB-468 cells. The experiment in a line: Comet assay (DNA damage), MDA-MB-468. It counts as cell-based, human. Details: Tail Moment (Mean) / Olive Tail Moment (Mean): unit not given here. Conditions: for percentage of tail DNA and tail moment: 10 μM, 1, 3, 6, 12 h, MDA-MB-468; for Tail Moment (Mean) / Olive Tail Moment (Mean) / %Tail DNA (Mean): MDA-MB-468, 10 µM; for Tail Moment (Mean): control 0.031056; for Olive Tail Moment (Mean): control 0.286711; for %Tail DNA (Mean): control 2.39052, alkaline electrophoresis, Vista Green. On the procedure:
The DNA damage assay was performed using a comet assay kit 96-well plate (Cell Bio Labs, CA, USA) as per the manufacturer’s instructions. Briefly, the cell suspension was mixed with the low-melting agarose at 1:20 ratio and added to the pre-coated 96 well plate. The cells were then subjected to lysis for 1 h, followed by alkaline electrophoresis. The plate was then washed in 70% ethanol and Vista Green DNA dye was added. The comets were visualized in Zeiss LSM780 Confocal microscope. The images were processed using Zeiss ZEN lite software and the comet parameters were measured using Open comet software.
Adriamycin is well known to induce DNA damage. Given the critical role of CARP-1 in apoptotic signaling by Adriamycin and CFM compounds, and the fact that stress-activated protein kinases (SAPKs) p38 and JNKs are activated in apoptosis signaling by CFM-4.16 [6, 12, 13, 14, 15, 16, 17, 18], we next determined whether CFM-4.16 also provoked DNA damage. We treated MDA-MB-468 and HeLa cells with a 10 μM dose of Adriamycin or CFM-4.16 for 1, 3, 6, and 12 h, followed by assessment of damaged DNA by the comet assay as described in Section 2. The presence of comet-like tails that contain the fragmented cellular DNA is a well-known marker/indicator of apoptosis. We measured the comet parameters such as percentage tail DNA and mean tail moment. […] Of note is the fact that Adriamycin and related anthracyclines intercalate between DNA bases and trap topoisomerase II (TopoII) in the double-strand cleavage form, thus introducing double-strand breaks (DSBs) due to TopoII poisoning. It remains to be clarified whether CFM-4.16 also targets cellular DNA and/or the associated DNA repair complex protein(s) to introduce DNA strand breaks, or activates caspase-activated DNAses to breakdown cellular genomic DNA.
Figure 2 Adriamycin and CFM-4.16 induce DNA damage. Cells were treated with the noted dose of respective compound for indicated time periods. Mean values for percentage tail DNA content (A,C) and Olive tail moment (B,D) for respective cells from control and treatment periods for each compound were measured using software recommended by the manufacturer of the kit for measurement of DNA damage (Cell Bio Labs, CA, USA). The columns in each chart indicate average values for respective treatment condition; bars, SE; * p ≤ 0.05.
Table S1. Adriamycin and CFM-4.16 stimulate DNA Damage in a time-dependent manner. MDA-MB-468 and HeLa cells were with noted dose of respective compound for indicated time periods.
Mean values for % tail DNA, Tail moment, and Olive tail moment for respective cells from control and treatment periods for each compound were measured using software recommended by the manufacturer of the kit for measurement of DNA damage (Cell Bio Labs, San Diego, CA, USA). The p values for each of the parameter are indicated below the mean values in each column for the treatment time period with each compound for both the cell lines.
Adriamycin (10 µM) CFM-4.16 (10 µM)

SMILES strings stand for the structures.

Consider `COc1cccc2c1C(=O)c1c(O)c3c(c(O)c1C2=O)C[C@@](O)(C(=O)CO)C[C@@H]3O[C@H]1C[C@H](N)[C@H](O)[C@H](C)O1` [Adriamycin, doxorubicin, reference compound], for which the “percentage of tail DNA and tail moment” value is recorded as “significantly increased”. For the setting “1 h”, the “Tail Moment (Mean)” value came to 3.462, the “Olive Tail Moment (Mean)” value was 2.898 and the “%Tail DNA (Mean)” value turned out to be 18.75%. Moreover, under “3 h”, the “Tail Moment (Mean)” value is 14.01, the “Olive Tail Moment (Mean)” value was found to be 9.946 and the “%Tail DNA (Mean)” value was determined as 25.75%. For the same compound, where the note is “6 h”, the “Tail Moment (Mean)” value is 24.19, the “Olive Tail Moment (Mean)” value was 14.06 and the “%Tail DNA (Mean)” value is 45.55%. Further, under “12 h”, the “Tail Moment (Mean)” value is listed as 43.07, the “Olive Tail Moment (Mean)” value came out at 20.46 and the “%Tail DNA (Mean)” value came out at 63.02%.
On to `O=C1N(Cc2ccccc2Cl)c2ccccc2C12NN=C(c1cccc(Cl)c1)S2` (centres unmarked) [CFM-4.16], for which the “percentage of tail DNA and tail moment” value is given as “significantly increased”. For the same compound, where the note is “1 h”, the “Tail Moment (Mean)” value was found to be 0.1504, the “Olive Tail Moment (Mean)” value was found to be 0.7773 and the “%Tail DNA (Mean)” value was 2.507%. For the setting “3 h”, the “Tail Moment (Mean)” value is given as 7.45, the “Olive Tail Moment (Mean)” value is listed as 4.594 and the “%Tail DNA (Mean)” value worked out at 17.24%. Besides, where the note is “6 h”, the “Tail Moment (Mean)” value is 25.29, the “Olive Tail Moment (Mean)” value came out at 13.06 and the “%Tail DNA (Mean)” value was determined as 36.18%. For the same compound, for the setting “12 h”, the “Tail Moment (Mean)” value stood at 45.02, the “Olive Tail Moment (Mean)” value is 24.23 and the “%Tail DNA (Mean)” value was found to be 55.6%.

The values above are taken from article PMC6406907, “A H2AX–CARP-1 Interaction Regulates Apoptosis Signaling Following DNA Damage” (Cancers, 2019).
